The target of the experiment is T1, SIRT1 (Homo sapiens, UniProt Q96EB6).
T1 sequence (Q96EB6 1-747): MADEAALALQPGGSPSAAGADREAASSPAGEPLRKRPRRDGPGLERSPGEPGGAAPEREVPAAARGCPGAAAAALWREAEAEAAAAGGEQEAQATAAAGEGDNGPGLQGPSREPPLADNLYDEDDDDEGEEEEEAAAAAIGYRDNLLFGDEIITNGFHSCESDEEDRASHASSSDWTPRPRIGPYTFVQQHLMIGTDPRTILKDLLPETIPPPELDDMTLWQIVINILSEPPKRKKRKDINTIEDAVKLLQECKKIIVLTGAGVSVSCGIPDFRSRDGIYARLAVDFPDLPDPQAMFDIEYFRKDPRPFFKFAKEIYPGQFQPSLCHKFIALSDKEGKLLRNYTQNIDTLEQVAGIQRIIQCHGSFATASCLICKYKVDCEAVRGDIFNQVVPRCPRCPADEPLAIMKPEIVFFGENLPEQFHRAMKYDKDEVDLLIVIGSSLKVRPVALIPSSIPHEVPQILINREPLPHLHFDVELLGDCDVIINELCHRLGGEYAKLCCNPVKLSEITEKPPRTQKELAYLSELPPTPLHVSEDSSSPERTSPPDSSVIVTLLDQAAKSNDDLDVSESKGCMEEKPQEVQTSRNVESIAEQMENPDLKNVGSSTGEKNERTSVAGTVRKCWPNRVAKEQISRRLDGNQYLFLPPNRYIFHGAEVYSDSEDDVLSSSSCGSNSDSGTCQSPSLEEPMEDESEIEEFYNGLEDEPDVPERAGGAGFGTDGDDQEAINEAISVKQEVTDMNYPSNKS
The experiment can be described thus: Mass spectrometry based assay to identify modulators of SIRT1 activity (deacetylation of p53-based acetylated peptide). Format: biochemical. The following applies: 10 nM SIRT1, 0.5 μM peptide substrate, 120 μM βNAD+, 25 minutes at 25° C.; for EC1.5 μM: SIRT1 activation. The text has this:
A mass spectrometry based assay was used to identify modulators of SIRT1 activity. The mass spectrometry based assay utilizes a peptide having 20 amino acid residues as follows: Ac-EE-K(biotin)-GQSTSSHSK(Ac)NleSTEG-K(5TMR)-EE-NH2 (SEQ ID NO: 1) wherein K(Ac) is an acetylated lysine residue and Nle is a norleucine. The peptide is labeled with the fluorophore 5TMR (excitation 540 nm/emission 580 nm) at the C-terminus. The sequence of the peptide substrate is based on p53 with several modifications. In addition, the methionine residue naturally present in the sequence was replaced with the norleucine because the methionine may be susceptible to oxidation during synthesis and purification.
The mass spectrometry assay is conducted as follows: 0.5 μM peptide substrate and 120 μM βNAD^+ is incubated with 10 nM SIRT1 for 25 minutes at 25° C. in a reaction buffer (50 mM Tris-acetate pH 8, 137 mM NaCl, 2.7 mM KCl, 1 mM MgCl2, 5 mM DTT, 0.05% BSA). Test compounds may be added to the reaction as described above. […] After the 25 minute incubation with SIRT1, 10 μL of 10% formic acid is added to stop the reaction. Reactions are sealed and frozen for later mass spec analysis. Determination of the mass of the substrate peptide allows for precise determination of the degree of acetylation (i.e. starting material) as compared to deacetylated peptide (product).
A control for inhibition of sirtuin activity is conducted by adding 1 μL of 500 mM nicotinamide as a negative control at the start of the reaction (e.g., permits determination of maximum sirtuin inhibition). A control for activation of sirtuin activity is conducted using 10 nM of sirtuin protein, with 1 μL of DMSO in place of compound, to determine the amount of deacetylation of the substrate at a given timepoint within the linear range of the assay. This timepoint is the same as that used for test compounds and, within the linear range, the endpoint represents a change in velocity.
For the above assay, SIRT1 protein was expressed and purified as follows. […] The protein was expressed by induction with 1 mM IPTG as an N-terminal His-tag fusion protein at 18° C. overnight and harvested at 30,000×g. Cells were lysed with lysozyme in lysis buffer (50 mM Tris-HCl, 2 mM Tris[2-carboxyethyl]phosphine (TCEP), 10 μM ZnCl2, 200 mM NaCl) and further treated with sonication for 10 min for complete lysis. The protein was purified over a Ni-NTA column (Amersham) and fractions containing pure protein were pooled, concentrated and run over a sizing column (Sephadex S200 26/60 global). The peak containing soluble protein was collected and run on an Ion-exchange column (MonoQ). Gradient elution (200 mM-500 mM NaCl) yielded pure protein. This protein was concentrated and dialyzed against dialysis buffer (20 mM Tris-HCl, 2 mM TCEP) overnight. The protein was aliquoted and frozen at −80° C. until further use.
Sirtuin modulating compounds that activated SIRT1 were identified using the assay described above and are shown below in Tables 1 and 2. The EC1.5 values for the activating compounds are represented by A (EC1.5<1.0 μM), B (EC1.5 1-25 μM), C (EC1.5>25 μM). The percent maximum fold activation is represented by A (Fold activation>200%) or B (Fold Activation<200%).

As for `Cn1c(-c2cccc(C(F)F)c2)nc2c(C(=O)Nc3ccccn3)cccc2c1=O` [Compound 323], the “% Fold Act. (percent maximum fold activation)” value is “B (Fold Activation<200%)” and the “EC1.5 μM” value is “C (EC1.5>25 μM)”.
`O=C(Nc1ccccn1)c1cccc2c(=O)[nH]c(-c3ccccc3C(F)F)nc12` [Compound 324]: the “% Fold Act. (percent maximum fold activation)” value is reported as “A (Fold activation>200%)” and the “EC1.5 μM” value is on record as “A (EC1.5<1.0 μM)”.
Taken in the same sequence, the figures for `Cn1c(-c2ccccn2)nc2c(C(=O)Nc3ccccn3)cccc2c1=O` [Compound 255] were “B (Fold Activation<200%)” and “C (EC1.5>25 μM)”.
Regarding `O=C(Nc1ccncn1)c1cccc2c(=O)cc(-c3cccc(C(F)(F)F)c3)[nH]c12` [Compound 415], the “% Fold Act. (percent maximum fold activation)” value was “A (Fold activation>200%)” and the “EC1.5 μM” value was “A (EC1.5<1.0 μM)”.
Regarding `Cn1c(-c2cccc(C(F)(F)F)c2)nc2c(NC(=O)c3ccccn3)cccc2c1=O` [Compound 239, N-(3-methyl-4-oxo-2-(3-(trifluoromethyl)phenyl)-3,4-dihydroquinazolin-8-yl)picolinamide], the “% Fold Act. (percent maximum fold activation)” value was “A (Fold activation>200%)” and the “EC1.5 μM” value was “A (EC1.5<1.0 μM)”.
The corresponding values for `Cn1c(-c2ccc(OC(F)(F)F)cc2)nc2c(NC(=O)c3cnccn3)cccc2c1=O` [Compound 252] are “B (Fold Activation<200%)” and “C (EC1.5>25 μM)”.
The corresponding values for `Cn1c(-c2cnccn2)nc2c(C(=O)Nc3ccccn3)cccc2c1=O` [Compound 258] are “B (Fold Activation<200%)” and “C (EC1.5>25 μM)”.
Consider `Cn1cnc(NC(=O)c2cccc3c(=O)n(C)c(-c4cccc(C(F)(F)F)c4)nc23)n1` [Compound 305], for which the “% Fold Act. (percent maximum fold activation)” value is listed as “A (Fold activation>200%)” and the “EC1.5 μM” value is “B (EC1.5 1-25 μM)”.
On to `Cn1c(-c2ccc(C#N)cc2)nc2c(C(=O)Nc3ccccn3)cccc2c1=O` [Compound 254], for which the “% Fold Act. (percent maximum fold activation)” value was “B (Fold Activation<200%)” and the “EC1.5 μM” value is on record as “C (EC1.5>25 μM)”.
Taken in the same sequence, the figures for `Cn1c(-c2cccc(C(F)(F)F)c2)nc2c(C(=O)Nc3nnc(C(C)(C)C)s3)cccc2c1=O` [Compound 297] were “A (Fold activation>200%)” and “A (EC1.5<1.0 μM)”.
Turning to `Cn1cnc(-c2nc3c(C(=O)Nc4ccccn4)cccc3c(=O)n2C)c1` [Compound 261], the “% Fold Act. (percent maximum fold activation)” value is given as “B (Fold Activation<200%)” and the “EC1.5 μM” value is listed as “C (EC1.5>25 μM)”.
Taken in the same sequence, the figures for `Cn1c(-c2cccc(S(C)(=O)=O)c2)nc2c(C(=O)Nc3ccccn3)cccc2c1=O` [Compound 222] were “A (Fold activation>200%)” and “B (EC1.5 1-25 μM)”.
The corresponding values for `Cn1c(-c2ccccc2N2CCOCC2)nc2c(C(=O)Nc3ccccn3)cccc2c1=O` [Compound 216] are “B (Fold Activation<200%)” and “C (EC1.5>25 μM)”.
The corresponding values for `O=C(Nc1cccc2c(=O)cc(-c3cccc(C(F)(F)F)c3)[nH]c12)c1ccccn1` [Compound 408] are “A (Fold activation>200%)” and “A (EC1.5<1.0 μM)”.
In the case of `Cn1c(-c2cccc(C(F)(F)F)c2)nc2c(NC(=O)c3cccc(CN4CCOCC4)c3)cccc2c1=O` [Compound 338], the “% Fold Act. (percent maximum fold activation)” value is reported as “A (Fold activation>200%)” and the “EC1.5 μM” value was “A (EC1.5<1.0 μM)”.
The corresponding values for `Cn1c(-c2cccc(N3CCOCC3)c2)nc2c(C(=O)Nc3ccccn3)cccc2c1=O` [Compound 209] are “A (Fold activation>200%)” and “B (EC1.5 1-25 μM)”.
In the case of `Cn1nccc1C(=O)Nc1cccc2c(=O)n(C)c(-c3cccc(C(F)(F)F)c3)nc12` [Compound 248], the “% Fold Act. (percent maximum fold activation)” value is “A (Fold activation>200%)” and the “EC1.5 μM” value is on record as “A (EC1.5<1.0 μM)”.
The corresponding values for `O=C(Nc1cccnc1)c1cccc2c(=O)cc(-c3ccccc3OC(F)(F)F)[nH]c12` [Compound 439] are “A (Fold activation>200%)” and “A (EC1.5<1.0 μM)”.
`Cn1c(-c2cccc(C(F)(F)F)c2)nc2c(C(=O)Nc3nc(CN4CCOCC4)cs3)cccc2c1=O` [Compound 309]: the “% Fold Act. (percent maximum fold activation)” value is listed as “A (Fold activation>200%)” and the “EC1.5 μM” value is “A (EC1.5<1.0 μM)”.
As for `O=C(Nc1nccs1)c1cccc2c(=O)cc(-c3cccc(C(F)(F)F)c3)[nH]c12` [Compound 404], the “% Fold Act. (percent maximum fold activation)” value was “A (Fold activation>200%)” and the “EC1.5 μM” value is “A (EC1.5<1.0 μM)”.
Taken in the same sequence, the figures for `CC(C)Cn1c(-c2cccc(C(F)(F)F)c2)nc2c(C(=O)Nc3ccccn3)cccc2c1=O` [Compound 271] were “B (Fold Activation<200%)” and “B (EC1.5 1-25 μM)”.
Consider `Cn1c(C2CCCC2)nc2c(C(=O)Nc3ccccn3)cccc2c1=O` [Compound 214], for which the “% Fold Act. (percent maximum fold activation)” value was “B (Fold Activation<200%)” and the “EC1.5 μM” value was “C (EC1.5>25 μM)”.
Take `Cn1c(-c2ccncc2)nc2c(NC(=O)c3cnccn3)cccc2c1=O` [Compound 279]: the “% Fold Act. (percent maximum fold activation)” value was “B (Fold Activation<200%)” and the “EC1.5 μM” value was “C (EC1.5>25 μM)”.
The corresponding values for `Cn1cc(C(=O)Nc2cccc3c(=O)n(C)c(-c4cccc(C(F)(F)F)c4)nc23)cn1` [Compound 268] are “B (Fold Activation<200%)” and “C (EC1.5>25 μM)”.
The corresponding values for `Cn1c(-c2cccc(C(F)(F)F)c2)nc2c(C(=O)Nc3ccnc(CN4CCOCC4)n3)cccc2c1=O` [Compound 307] are “A (Fold activation>200%)” and “B (EC1.5 1-25 μM)”.
For the molecule `Cc1nc(C)c(-c2nc3c(NC(=O)c4cnccn4)cccc3c(=O)n2C)s1` [Compound 287, N-(2-(2,4-dimethylthiazol-5-yl)-3-methyl-4-oxo-3,4-dihydroquinazolin-8-yl)pyrazine-2-carboxamide], the “% Fold Act. (percent maximum fold activation)” value is given as “A (Fold activation>200%)” and the “EC1.5 μM” value is reported as “B (EC1.5 1-25 μM)”.
Taken in the same sequence, the figures for `O=C(Nc1nccs1)c1cccc2c(=O)cc(-c3ccccc3C(F)(F)F)[nH]c12` [Compound 427] were “A (Fold activation>200%)” and “A (EC1.5<1.0 μM)”.
On to `Cn1c(-c2cccc(C(F)(F)F)c2)nc2c(NC(=O)c3ccncc3)cccc2c1=O` [Compound 237], for which the “% Fold Act. (percent maximum fold activation)” value was “B (Fold Activation<200%)” and the “EC1.5 μM” value is given as “B (EC1.5 1-25 μM)”.

(Values after US9326986B2, “Quinazolinone, quinolone and related analogs as sirtuin modulators” (GLAXOSMITHKLINE LLC, priority 2008, dated 2016).)
